Test results: ChEMBL document CHEMBL4118122, “Identification and biological evaluation of thiazole-based inverse agonists of RORγt” (Bioorg Med Chem Lett, 2018)

Legend:
Histamine H2 receptor [1] = molecular target: T1, Histamine H2 receptor (Homo sapiens, UniProt P25021); test: Displacement of [125I]APT from human recombinant histamine H2 receptor at 10 uM after 120 mins by scintillation counting analysis relative to control
[2] = molecular target: Neurotensin receptor type 1 (Homo sapiens, UniProt P30989); test: Displacement of [125I]Tyr3-neurotensin from human recombinant NTS1 receptor at 10 uM after 120 mins by scintillation counting analysis relative to control
Mu-type opioid receptor [3] = molecular target: T2, Mu-type opioid receptor (Homo sapiens, UniProt P35372); test: Displacement of [3H]DAMGO from human recombinant mu receptor at 10 uM after 120 mins by scintillation counting analysis relative to control
T2 sequence (P35372 whole entry): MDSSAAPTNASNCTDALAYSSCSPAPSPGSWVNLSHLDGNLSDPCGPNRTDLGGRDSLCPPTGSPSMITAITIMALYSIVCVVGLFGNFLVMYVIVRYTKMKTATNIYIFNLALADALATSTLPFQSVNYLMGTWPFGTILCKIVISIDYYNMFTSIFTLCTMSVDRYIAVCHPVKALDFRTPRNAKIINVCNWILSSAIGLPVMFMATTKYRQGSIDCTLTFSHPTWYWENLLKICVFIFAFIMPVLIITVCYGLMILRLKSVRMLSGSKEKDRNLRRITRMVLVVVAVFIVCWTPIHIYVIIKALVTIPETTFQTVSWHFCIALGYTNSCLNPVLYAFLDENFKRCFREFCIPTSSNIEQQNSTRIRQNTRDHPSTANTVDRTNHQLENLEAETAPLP

Homo sapiens = organism: Homo sapiens; test: Binding affinity to GABA-gated chloride channel (unknown origin) at 10 uM by antagonist radioligand binding assay relative to control
[4] = molecular target: T3, Sodium-dependent serotonin transporter (Homo sapiens, UniProt P31645); test: Displacement of [3H]-imipramine from recombinant human 5-HT transporter at 10 uM after 60 mins by scintillation counting relative to control
T3 sequence (P31645 whole entry, looked up): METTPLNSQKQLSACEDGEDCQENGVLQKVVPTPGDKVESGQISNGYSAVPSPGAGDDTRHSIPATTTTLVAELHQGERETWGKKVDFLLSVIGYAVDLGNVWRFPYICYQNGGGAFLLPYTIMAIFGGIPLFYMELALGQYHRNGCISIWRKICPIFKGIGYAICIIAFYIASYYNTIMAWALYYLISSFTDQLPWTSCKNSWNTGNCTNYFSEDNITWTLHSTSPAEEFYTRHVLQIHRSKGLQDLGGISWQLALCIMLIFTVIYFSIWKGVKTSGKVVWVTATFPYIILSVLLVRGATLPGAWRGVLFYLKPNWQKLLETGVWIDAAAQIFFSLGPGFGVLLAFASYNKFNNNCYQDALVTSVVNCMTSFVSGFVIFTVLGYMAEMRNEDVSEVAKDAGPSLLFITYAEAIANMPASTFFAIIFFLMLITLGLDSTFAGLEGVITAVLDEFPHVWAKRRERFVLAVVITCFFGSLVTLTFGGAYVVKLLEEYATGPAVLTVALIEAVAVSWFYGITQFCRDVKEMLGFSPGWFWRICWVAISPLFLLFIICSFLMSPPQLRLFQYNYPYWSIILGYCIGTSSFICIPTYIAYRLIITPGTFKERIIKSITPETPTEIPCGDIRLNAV

[5] = molecular target: B2 bradykinin receptor (Homo sapiens) (UniProt P30411); test: Displacement of [3H]bradykinin from human recombinant B2 receptor at 1 uM after 60 mins by scintillation counting analysis relative to control
Histamine H1 receptor = Histamine H1 receptor (Homo sapiens, UniProt P35367); test: Displacement of [3H]pyrilamine from human recombinant histamine H1 receptor at 1 uM after 60 mins by scintillation counting analysis relative to control
Histamine H1 receptor, sequence (P35367 whole entry): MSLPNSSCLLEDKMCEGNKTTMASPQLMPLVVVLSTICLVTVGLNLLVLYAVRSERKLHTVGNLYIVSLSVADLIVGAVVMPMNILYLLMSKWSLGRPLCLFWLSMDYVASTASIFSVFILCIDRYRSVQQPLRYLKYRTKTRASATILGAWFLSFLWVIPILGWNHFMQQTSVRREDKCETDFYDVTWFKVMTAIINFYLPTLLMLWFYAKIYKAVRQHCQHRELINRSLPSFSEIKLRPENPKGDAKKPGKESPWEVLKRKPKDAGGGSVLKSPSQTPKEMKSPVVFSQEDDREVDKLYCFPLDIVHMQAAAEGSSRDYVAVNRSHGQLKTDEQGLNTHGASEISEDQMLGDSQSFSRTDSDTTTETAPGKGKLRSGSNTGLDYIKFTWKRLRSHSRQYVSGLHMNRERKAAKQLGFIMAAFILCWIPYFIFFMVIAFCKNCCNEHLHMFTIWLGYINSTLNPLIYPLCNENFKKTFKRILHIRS

Histamine H2 receptor [6] = molecular target: T1, Histamine H2 receptor; test: Displacement of [125I]APT from human recombinant histamine H2 receptor at 1 uM after 120 mins by scintillation counting analysis relative to control
[7] = molecular target: Muscarinic acetylcholine receptor M3 (Homo sapiens, UniProt P20309); test: Displacement of [3H]4-DAMP from human recombinant M3 receptor at 1 uM after 60 mins by scintillation counting analysis relative to control
[8] = molecular target: 5-hydroxytryptamine receptor 2A (Homo sapiens, UniProt P28223); test: Displacement of [3H]ketanserin human recombinant 5-HT2A receptor at 1 uM after 60 mins by scintillation counting analysis relative to control
[9] = molecular target: Somatostatin receptor (Mus musculus) (UniProt P30935+O08858+P30875+P30873+P49660); test: Displacement of [125I]Tyr11-somatostatin-14 from mouse SST receptor at 1 uM after 60 mins by scintillation counting analysis relative to control; type: protein assay
[10] = molecular target: T3, Sodium-dependent serotonin transporter; test: Displacement of [3H]-imipramine from recombinant human 5-HT transporter at 1 uM after 60 mins by scintillation counting relative to control
Adenosine receptor A1 = Adenosine receptor A1 (Homo sapiens, UniProt P30542); test: Displacement of [3H]-DPCPX from human recombinant adenosine A1 receptor after 60 mins by scintillation counting analysis
Adenosine receptor A1, sequence (P30542 whole entry): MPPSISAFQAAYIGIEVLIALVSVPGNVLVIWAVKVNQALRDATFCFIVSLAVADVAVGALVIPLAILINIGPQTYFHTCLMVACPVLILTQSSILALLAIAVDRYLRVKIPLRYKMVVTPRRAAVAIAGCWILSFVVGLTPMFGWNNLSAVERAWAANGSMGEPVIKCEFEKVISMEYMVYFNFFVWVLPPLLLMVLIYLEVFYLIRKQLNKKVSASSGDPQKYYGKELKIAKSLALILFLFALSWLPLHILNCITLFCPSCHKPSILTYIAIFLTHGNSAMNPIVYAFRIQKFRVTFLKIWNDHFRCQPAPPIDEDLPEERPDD

[11] = molecular target: Adrenergic receptor alpha-1 (Rattus norvegicus, UniProt P15823+P23944+P43140); test: Displacement of [3H]-prazosin from rat alpha1 adrenoceptor after 60 mins by scintillation counting analysis; type: protein assay
[12] = Binding affinity to rat GABA receptor after 60 mins by agonist radioligand binding assay
[13] = molecular target: Muscarinic acetylcholine receptor M1 (Homo sapiens, UniProt P11229); test: Displacement of […] from human recombinant M1 receptor after 60 mins by scintillation counting analysis
Muscarinic acetylcholine receptor M1, sequence (P11229 whole entry): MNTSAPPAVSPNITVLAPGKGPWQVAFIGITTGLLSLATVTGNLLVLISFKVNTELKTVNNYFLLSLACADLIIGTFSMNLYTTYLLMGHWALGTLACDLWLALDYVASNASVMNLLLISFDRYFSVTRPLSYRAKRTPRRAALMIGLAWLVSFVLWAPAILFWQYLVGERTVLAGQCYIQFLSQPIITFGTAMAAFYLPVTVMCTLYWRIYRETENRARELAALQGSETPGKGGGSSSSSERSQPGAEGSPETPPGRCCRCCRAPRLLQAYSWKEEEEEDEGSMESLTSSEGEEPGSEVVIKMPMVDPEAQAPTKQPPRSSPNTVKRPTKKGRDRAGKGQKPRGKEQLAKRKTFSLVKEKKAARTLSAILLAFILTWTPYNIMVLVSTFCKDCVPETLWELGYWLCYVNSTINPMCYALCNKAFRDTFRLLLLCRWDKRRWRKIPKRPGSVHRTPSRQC

[14] = molecular target: Neuropeptide Y receptor type 2 (Homo sapiens, UniProt P49146); test: Displacement of [125I]peptide YY from human Y2 receptor after 120 mins by scintillation counting analysis
Mu-type opioid receptor [15] = molecular target: T2, Mu-type opioid receptor; test: Displacement of [3H]DAMGO from human recombinant mu receptor after 120 mins by scintillation counting analysis
[16] = molecular target: 5-hydroxytryptamine receptor 6 (Homo sapiens, UniProt P50406); test: Displacement of [3H]LSD from human recombinant 5-HT6 receptor after 120 mins by scintillation counting analysis
5-hydroxytryptamine receptor 6, sequence (P50406 whole entry): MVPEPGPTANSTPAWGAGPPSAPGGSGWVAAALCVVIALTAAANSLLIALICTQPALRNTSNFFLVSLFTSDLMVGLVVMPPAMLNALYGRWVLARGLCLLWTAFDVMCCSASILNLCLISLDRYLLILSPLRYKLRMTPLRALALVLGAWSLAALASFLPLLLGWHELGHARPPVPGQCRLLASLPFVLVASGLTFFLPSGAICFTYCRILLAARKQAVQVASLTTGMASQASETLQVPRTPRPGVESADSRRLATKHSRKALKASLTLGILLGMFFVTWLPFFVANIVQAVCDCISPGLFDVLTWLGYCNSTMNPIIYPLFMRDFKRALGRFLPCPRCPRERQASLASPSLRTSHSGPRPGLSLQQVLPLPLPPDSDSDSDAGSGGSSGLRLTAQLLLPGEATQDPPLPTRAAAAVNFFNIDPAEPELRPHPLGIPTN

[17] = molecular target: 5-hydroxytryptamine receptor 7 (Homo sapiens, UniProt P34969); test: Displacement of [3H]LSD from human recombinant 5-HT7 receptor after 120 mins by scintillation counting analysis
[18] = molecular target: Small conductance calcium-activated potassium channel (Rattus norvegicus, UniProt P70604+P70606+P70605); test: Displacement of [125I]apamin from rat brain SkCa channel after 60 mins by scintillation counting analysis
[19] = molecular target: Activin receptor type-1B (Homo sapiens) (UniProt P36896); test: Inhibition of recombinant GST-tagged human ACVR1B catalytic domain (150 to 505 residues) expressed in baculovirus expression system at 10 uM in presence of ATP relative to control
[20] = molecular target: Aurora kinase B (Homo sapiens) (UniProt Q96GD4); test: Inhibition of recombinant full length His-tagged human Aurora B expressed in baculovirus expression system at 10 uM in presence of ATP relative to control
[21] = molecular target: Tyrosine-protein kinase Blk (Homo sapiens) (UniProt P51451); test: Inhibition of recombinant full length His-tagged human Blk cytoplasmic domain expressed in Baculovirus expression system at 10 uM in presence of ATP relative to control
[22] = molecular target: Calcium/calmodulin-dependent protein kinase type II subunit alpha (Homo sapiens) (UniProt Q9UQM7); test: Inhibition of CamK2alpha (unknown origin) at 10 uM in presence of ATP relative to control
[23] = molecular target: Glycogen synthase kinase-3 beta (Homo sapiens) (UniProt P49841); test: Inhibition of recombinant full length human His-tagged GSK3beta expressed in baculovirus expression system at 10 uM in presence of ATP relative to control
[24] = molecular target: Inhibitor of nuclear factor kappa-B kinase subunit beta (Homo sapiens) (UniProt O14920); test: Inhibition of recombinant full length GST-tagged human IKKbeta expressed in baculovirus expression system at 10 uM in presence of ATP relative to control
Inhibitor of nuclear factor kappa-B kinase subunit beta (Homo sapiens), sequence (O14920 whole entry): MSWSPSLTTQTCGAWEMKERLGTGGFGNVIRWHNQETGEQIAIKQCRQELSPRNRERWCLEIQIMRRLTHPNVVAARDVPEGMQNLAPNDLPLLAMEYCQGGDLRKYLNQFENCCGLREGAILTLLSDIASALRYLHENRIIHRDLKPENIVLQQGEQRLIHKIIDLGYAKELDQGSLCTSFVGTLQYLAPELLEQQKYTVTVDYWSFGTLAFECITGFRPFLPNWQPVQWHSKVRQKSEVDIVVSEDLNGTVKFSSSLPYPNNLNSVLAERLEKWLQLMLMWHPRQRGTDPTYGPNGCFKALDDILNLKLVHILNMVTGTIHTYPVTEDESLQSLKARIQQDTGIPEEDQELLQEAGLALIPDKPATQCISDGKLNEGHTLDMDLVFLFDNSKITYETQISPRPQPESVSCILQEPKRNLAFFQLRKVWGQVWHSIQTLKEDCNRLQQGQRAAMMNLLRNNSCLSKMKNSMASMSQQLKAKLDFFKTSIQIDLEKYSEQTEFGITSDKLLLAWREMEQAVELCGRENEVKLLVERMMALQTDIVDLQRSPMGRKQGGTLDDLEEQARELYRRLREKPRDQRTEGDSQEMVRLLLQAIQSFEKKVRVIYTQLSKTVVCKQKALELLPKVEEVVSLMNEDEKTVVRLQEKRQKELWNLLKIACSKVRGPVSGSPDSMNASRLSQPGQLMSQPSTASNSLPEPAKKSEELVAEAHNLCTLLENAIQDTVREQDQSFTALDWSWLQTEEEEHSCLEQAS

[25] = molecular target: Mitogen-activated protein kinase 1 (Homo sapiens) (UniProt P28482); test: Inhibition of recombinant GST-tagged human ERK2 expressed in Escherichia coli at 10 uM in presence of ATP relative to control
[26] = molecular target: Mitogen-activated protein kinase 12 (Homo sapiens) (UniProt P53778); test: Inhibition of recombinant full length His-tagged human p38gamma expressed in baculovirus expression system at 10 uM in presence of ATP relative to control
Mitogen-activated protein kinase 12 (Homo sapiens), sequence (P53778 whole entry): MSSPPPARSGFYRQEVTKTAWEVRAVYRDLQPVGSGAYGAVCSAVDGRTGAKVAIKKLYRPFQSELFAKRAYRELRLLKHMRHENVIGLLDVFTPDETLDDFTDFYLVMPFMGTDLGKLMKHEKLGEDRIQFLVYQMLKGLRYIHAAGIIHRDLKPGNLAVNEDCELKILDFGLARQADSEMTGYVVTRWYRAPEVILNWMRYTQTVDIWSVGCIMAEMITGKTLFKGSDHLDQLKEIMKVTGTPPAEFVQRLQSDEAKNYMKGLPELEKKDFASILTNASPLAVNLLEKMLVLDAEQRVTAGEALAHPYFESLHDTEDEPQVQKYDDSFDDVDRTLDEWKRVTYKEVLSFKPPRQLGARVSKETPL

[27] = molecular target: Serine/threonine-protein kinase Nek2 (Homo sapiens) (UniProt P51955); test: Inhibition of recombinant full length His-tagged human NEK2 expressed in baculovirus expression system at 10 uM in presence of ATP relative to control
Serine/threonine-protein kinase Nek2 (Homo sapiens), sequence (P51955 whole entry): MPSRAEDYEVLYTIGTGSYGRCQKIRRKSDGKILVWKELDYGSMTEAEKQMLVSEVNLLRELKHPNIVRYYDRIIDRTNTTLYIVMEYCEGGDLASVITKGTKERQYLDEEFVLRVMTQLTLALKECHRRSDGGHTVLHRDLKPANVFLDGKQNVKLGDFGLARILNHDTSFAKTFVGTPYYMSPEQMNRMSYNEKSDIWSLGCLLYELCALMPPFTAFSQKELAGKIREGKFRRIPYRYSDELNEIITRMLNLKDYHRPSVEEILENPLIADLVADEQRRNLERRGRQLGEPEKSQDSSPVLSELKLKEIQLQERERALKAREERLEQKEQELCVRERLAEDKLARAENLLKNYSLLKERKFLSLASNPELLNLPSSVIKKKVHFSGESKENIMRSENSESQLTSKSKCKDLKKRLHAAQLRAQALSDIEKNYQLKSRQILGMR

Cytochrome P450 2D6 = Cytochrome P450 2D6 (Homo sapiens, UniProt P10635); test: Inhibition of CYP2D6 (unknown origin); type: ADME
[28] = Half life in Sprague-Dawley rat at 1 mg/kg, iv; type: ADME, organism-based; details: in vivo
[29] = molecular target: Proto-oncogene tyrosine-protein kinase receptor Ret (Homo sapiens) (UniProt P07949); test: Inhibition of recombinant GST-tagged human RET cytoplasmic domain (658 to 1114 residues) expressed in baculovirus expression system at 10 uM in presence of ATP relative to control
[30] = molecular target: Ribosomal protein S6 kinase alpha-2 (Homo sapiens) (UniProt Q15349); test: Inhibition of recombinant full length GST-tagged human RSK3 expressed in insect cells at 10 uM in presence of ATP relative to control

T1 sequence (P25021 whole entry): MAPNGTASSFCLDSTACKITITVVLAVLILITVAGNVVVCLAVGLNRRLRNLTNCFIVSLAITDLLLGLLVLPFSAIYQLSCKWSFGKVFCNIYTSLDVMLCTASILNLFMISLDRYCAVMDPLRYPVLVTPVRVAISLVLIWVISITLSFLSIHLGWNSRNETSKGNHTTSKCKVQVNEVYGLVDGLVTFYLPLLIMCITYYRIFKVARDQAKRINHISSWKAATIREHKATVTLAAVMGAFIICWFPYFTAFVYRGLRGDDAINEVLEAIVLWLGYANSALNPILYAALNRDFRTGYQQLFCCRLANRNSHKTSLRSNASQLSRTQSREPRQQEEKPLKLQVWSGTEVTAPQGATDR

Compound `CC(C)(C)NS(=O)(=O)c1ccc(-c2sc(C(=O)N[C@H]3C[C@H](C(=O)O)C3)nc2CC2CCCCC2)c2ccccc12` has an inhibition (Histamine H2 receptor [1]) of less than 10%, an inhibition [2] of less than 10% and an inhibition (Mu-type opioid receptor [3]) of 12%. The inhibition (Homo sapiens) was 86%, the inhibition [4] was less than 10% and the inhibition [5] was less than 10%. For the same compound, the inhibition (Histamine H1 receptor) was 11%, the inhibition (Histamine H2 receptor [6]) was less than 10% and the inhibition [7] was less than 10%. For the same compound, the inhibition [8] was less than 10%, the inhibition [9] was less than 10% and the inhibition [10] was less than 10%. For the same compound, the IC50 (Adenosine receptor A1) was 0.61 nM, the IC50 [11] was 0.25 nM and the IC50 [12] was 114 nM. For the same compound, the IC50 [13] was 18 nM, the IC50 [14] was 0.28 nM and the IC50 (Mu-type opioid receptor [15]) was 1.1 nM. The IC50 [16] was 254 nM, the IC50 [17] was 0.39 nM and the IC50 [18] was 0.012 nM. For the same compound, the inhibition [19] was -2%, the inhibition [20] was 8% and the inhibition [21] was -5%. The inhibition [22] was 2%, the inhibition [23] was -3% and the inhibition [24] was -4%. It also gave an inhibition [25] of -6%, an inhibition [26] of -2% and an inhibition [27] of -6%. The INH (Cytochrome P450 2D6) was greater than 10 µM, the half-life [28] was 42 min and the inhibition [29] was -3%. The inhibition [30] was -4%.
